Consider three compounds from patent US20030032620A1, “Low molecular weight chondroitin sulphate compound having cosmetic activity” (priority 2001, published 2003).

Format in all cases: cell-based
Common to all, as to settings: human fibroblast culture, radioactive labelling

Assay [1] deals with human dermal fibroblasts. Nature of the assay: Leucine incorporation (protein synthesis) in human fibroblast cultures. From the text:
(§1) In another embodiment of the invention the CSBP obtained in the present example was characterised by its efficiency in stimulating the fundamental metabolism of human dermal fibroblasts, more particularly by incorporation of various markers such as thymidine (cell growth), leucine (protein synthesis) and glucosamine (synthesis of GAG).
(§2) Tests in vitro on human fibroblast cultures are a means of evaluating the capacity of CSBP to stimulate the fundamental metabolism of the extracellular matrix of the cutis. Under conventional conditions of cultivation in triplicate, the CSBP according to the invention and positive references (EGF, epidermis growth factor at 10 ng/ml, TGF-β human transformation factor b at 10 ng/ml and vitamin C at 20 mg/ml) were placed in contact with fibroblasts. The neosynthesis can be quantified by radioactive labelling of the specific metabolites (amino acids). Two concentrations of CSBP were tested: 2 and 0.4 mg/ml. The results obtained in the following table were subjected to the Dunnett test:
(§3) The culture conditions were as follows:
(§4) Culture medium MEM/M199: sodium bicarbonate 1.87 mg/ml, L-glutamine 2 mM, penicillin 50 IU/ml and foetal calf serum 10%.

Assay [2] deals with human dermal fibroblasts. Nature of the assay: Glucosamine incorporation (synthesis of GAG) in human fibroblast cultures.
Text: as §1, §2, §3, §4

Assay [3] deals with human dermal fibroblasts. Nature of the assay: Thymidine incorporation (cell growth) in human fibroblast cultures.
Text: as §1, §2, §3, §4

On to `O=C1O[C@H]([C@@H](O)CO)C(O)=C1O` [VIT C, vitamin C, reference compound], for which the “% Leucine” value in the assay on human dermal fibroblasts [1] (positive reference vitamin C) is “VIT C: 45%”.
For “low molecular weight chondroitin sulphate [CSBP]”, the “% Glucosamine” value in the assay with human dermal fibroblasts [2] (CSBP 0.4 mg/ml) was 57 p < 0.01%; in the assay with human dermal fibroblasts [2] (CSBP 2.0 mg/ml), 178 p < 0.01%. Besides, the “% Thymidine” value in the assay with human dermal fibroblasts [3] (CSBP 0.4 mg/ml) was 74 p < 0.01%; in the assay on human dermal fibroblasts [3] (CSBP 2.0 mg/ml) it was 183 p < 0.01%. Moreover, the “% Leucine” value in the assay on human dermal fibroblasts [1] (CSBP 0.4 mg/ml) came out at 44 p < 0.05%; in the assay on human dermal fibroblasts [1] (CSBP 2.0 mg/ml), 88 p < 0.01%.
Regarding “EGF: epidermis growth factor, positive reference (NSDSECPLSHDGYCLHDGVCMYIEALDKYACNCVVGYIGERCQYRDLKWWELR; Epidermal growth factor; UniProt P01133 971-1023, looked up) [reference compound]”, in the assay on human dermal fibroblasts [3] (positive reference EGF at 10 ng/ml), the “% Thymidine” value is “EGF: 100%”.
